Source: paper PMC2639596, “Antimicrobial peptides effectively kill a broad spectrum of Listeria monocytogenes and Staphylococcus aureus strains independently of origin, sub-type, or virulence factor expression” (BMC Microbiology, 2008)

Experiments:
[1] = system: L. monocytogenes and S. aureus; test: Minimum bactericidal concentration (MBC), plating from MIC wells; assay type: cell-based, Listeria monocytogenes, Staphylococcus aureus; settings: 99.9% reduction of initial inoculum; 10 μl from wells with no visible growth plated on BHI agar
Method: (§1) The strain collection was tested for sensitivity to protamine, plectasin, novicidin, and novispirin G10 by determining their minimal inhibitory concentration (MIC) using a microbroth dilution method. Colonies from a BHI agar plate incubated overnight were suspended in MHB pH 7.4 to a turbidity of 0.11–0.12 at 546 nm (approx. 1.0 × 10^8 CFU/ml) and diluted in MHB to a concentration of 5.0 × 10^5 CFU/ml. 90 μl of bacterial suspension was incubated with 10 μl of peptide solution in polypropylene 96-well plates (Nunc, 442587) for 18–24 h at 37°C. The peptide solutions were made fresh on the day of assay and diluted two-fold. The range of concentrations assayed were 0.031–32 μg/ml for novicidin, 0.125–128 μg/ml for protamine and novispirin G10, and 0.25–256 μg/ml for plectasin. MIC was the lowest peptide concentration at which visual growth was inhibited. The minimum bactericidal concentration (MBC) values were determined by plating l0 μl samples from wells with no visible growth onto BHI agar plates. MBC was the lowest concentration of each peptide of which 99.9% reduction of the initial inoculum was observed.

[2] = system: Staphylococcus aureus; test: MIC of host defense peptides in liquid medium (microbroth dilution); assay type: cell-based; settings: 37°C; for MIC: 18–24 h
Method: (§2) Experiments were carried out with a collection of 25 Listeria monocytogenes strains (Table 1) and 16 Staphylococcus aureus strains (Table 2) representing different lineages and serotypes (L. monocytogenes), spa types (S. aureus), and origins (food processing environment, food products, and human clinical isolates). Six L. monocytogenes strains were mutants of the EGD strain and were mutated in genes known to be involved in stress tolerance. The S. aureus collection comprised two deletion mutants, strains Sa113/ΔmprF [8] and Sa113/ΔdltA [7], known to be more sensitive to host defense peptides. Two of the S. aureus strains could not immediately be assigned to an existing spa type and we are in the process of acquiring the additional information that is needed to assign a new spa type to them. The strains were obtained from The National Institute of Aquatic Resources and The National Food Institute, Technical University of Denmark, Faculty of Life Sciences, University of Copenhagen, Denmark, Statens Serum Institut, Denmark, University of Würzburg, Germany and Campden Food and Drink Association, United Kingdom. Stock cultures were stored at -80°C in 4% (w/V) glycerol, 0.5% (w/V) glucose, and 2.0% (w/V) skimmed milk powder. The bacteria were grown in Brain Heart Infusion (BHI) broth (Oxoid, CM0225), Tryptone Soy Broth (TSB) (Oxoid, CM129), and cation-adjusted Mueller-Hinton II Broth (MHB) (Becton Dickinson, 212322) adjusted to pH 7.4. To avoid unspecific binding of host defense peptides to plastic ware and agar, all MIC determinations were carried out using polypropylene plastic ware and radial diffusion assays were carried out in MHB supplemented with 1% agarose (Invitrogen, 15510-027) as gelling agent.
(§3) Protamine was purchased from Sigma (P4020-5G). Plectasin, novicidin, and novispirin G10 were supplied by Novozymes A/S. Recombinant HBD-3 was purchased from PeproTech (300-52).
as §1

[3] = system: Listeria monocytogenes; test: as above; assay type: cell-based; settings: 37°C; for MIC: 18–24 h
Method: as §2, §3, §1

Substance: novicidin
- minimum bactericidal concentrations (MBC) [1]: identical to the MICs
- MIC values against S. aureus (range over strains) ([2]; range over 16 strains, MHB pH 7.4, 18–24 h): 0.5 to 12 µg/mL
- MIC ([2]; strain 796, MHB pH 7.4, 5.0 × 10^5 CFU/ml): 6 µg/mL
- MIC ([2]; strain 2148-jvi, MHB pH 7.4, 5.0 × 10^5 CFU/ml): 4 µg/mL
- MIC ([2]; strain 8325-4 (wildtype), MHB pH 7.4, 5.0 × 10^5 CFU/ml): 8 µg/mL
- MIC ([2]; strain 14943, MHB pH 7.4, 5.0 × 10^5 CFU/ml): 8 µg/mL
- MIC ([2]; strain 15033, MHB pH 7.4, 5.0 × 10^5 CFU/ml): 8 µg/mL
- MIC ([2]; strain B29997, MHB pH 7.4, 5.0 × 10^5 CFU/ml): 4 µg/mL
- MIC ([2]; strain B31369, MHB pH 7.4, 5.0 × 10^5 CFU/ml): 12 µg/mL
- MIC ([2]; strain J15033, MHB pH 7.4, 5.0 × 10^5 CFU/ml): 8 µg/mL
- MIC ([2]; strain K3-B2, MHB pH 7.4, 5.0 × 10^5 CFU/ml): 4 µg/mL
- MIC ([2]; strain KES 439, MHB pH 7.4, 5.0 × 10^5 CFU/ml): 4 µg/mL
- MIC ([2]; strain KES 626, MHB pH 7.4, 5.0 × 10^5 CFU/ml): 4 µg/mL
- MIC ([2]; strain KES 735, MHB pH 7.4, 5.0 × 10^5 CFU/ml): 4 µg/mL
- MIC ([2]; strain KES 855, MHB pH 7.4, 5.0 × 10^5 CFU/ml): 4 µg/mL
- MIC ([2]; strain Sa113 (wildtype), MHB pH 7.4, 5.0 × 10^5 CFU/ml): 6 µg/mL
- MIC ([2]; strain ΔdltA (Sa113 dltA ins), MHB pH 7.4, 5.0 × 10^5 CFU/ml): 0.5 µg/mL
- MIC ([2]; strain ΔmprF (Sa113 mprF del), MHB pH 7.4, 5.0 × 10^5 CFU/ml): 1 µg/mL
- MIC values against L. monocytogenes (range over strains) ([3]; range over 25 strains, MHB pH 7.4, 18–24 h): 2 to 8 µg/mL
- MIC ([3]; strain 2275 (EGD dps del), MHB pH 7.4, 5.0 × 10^5 CFU/ml): 4 µg/mL
- MIC ([3]; strain 2307 (EGD resD del), MHB pH 7.4, 5.0 × 10^5 CFU/ml): 2 µg/mL
- MIC ([3]; strain 2315 (EGD sigB del), MHB pH 7.4, 5.0 × 10^5 CFU/ml): 4 µg/mL
- MIC ([3]; strain 2317 (EGD prfA del), MHB pH 7.4, 5.0 × 10^5 CFU/ml): 4 µg/mL
- MIC ([3]; strain 2374 (EGD perR ins), MHB pH 7.4, 5.0 × 10^5 CFU/ml): 4 µg/mL
- MIC ([3]; strain 2375 (EGD perR del), MHB pH 7.4, 5.0 × 10^5 CFU/ml): 4 µg/mL
- MIC ([3]; strain 4239, MHB pH 7.4, 5.0 × 10^5 CFU/ml): 4 µg/mL
- MIC ([3]; strain 4446, MHB pH 7.4, 5.0 × 10^5 CFU/ml): 4 µg/mL
- MIC ([3]; strain 4459, MHB pH 7.4, 5.0 × 10^5 CFU/ml): 4 µg/mL
- MIC ([3]; strain 4666, MHB pH 7.4, 5.0 × 10^5 CFU/ml): 8 µg/mL
- MIC ([3]; strain 6895, MHB pH 7.4, 5.0 × 10^5 CFU/ml): 4 µg/mL
- MIC ([3]; strain 7291, MHB pH 7.4, 5.0 × 10^5 CFU/ml): 8 µg/mL
- MIC ([3]; strain 7418, MHB pH 7.4, 5.0 × 10^5 CFU/ml): 4 µg/mL
- MIC ([3]; strain EGD (wildtype), MHB pH 7.4, 5.0 × 10^5 CFU/ml): 4 µg/mL
- MIC ([3]; strain H13-1, MHB pH 7.4, 5.0 × 10^5 CFU/ml): 4 µg/mL
- MIC ([3]; strain LO28 (wildtype), MHB pH 7.4, 5.0 × 10^5 CFU/ml): 2 µg/mL
- MIC ([3]; strain La22, MHB pH 7.4, 5.0 × 10^5 CFU/ml): 4 µg/mL
- MIC ([3]; strain La111, MHB pH 7.4, 5.0 × 10^5 CFU/ml): 4 µg/mL
- MIC ([3]; strain M103-1, MHB pH 7.4, 5.0 × 10^5 CFU/ml): 4 µg/mL
- MIC ([3]; strain N53-1, MHB pH 7.4, 5.0 × 10^5 CFU/ml): 2 µg/mL
- MIC ([3]; strain No40-1, MHB pH 7.4, 5.0 × 10^5 CFU/ml): 4 µg/mL
- MIC ([3]; strain O57, MHB pH 7.4, 5.0 × 10^5 CFU/ml): 4 µg/mL
- MIC ([3]; strain R479a, MHB pH 7.4, 5.0 × 10^5 CFU/ml): 4 µg/mL
- MIC ([3]; strain Scott A, MHB pH 7.4, 5.0 × 10^5 CFU/ml): 4 µg/mL
- MIC ([3]; strain V518a, MHB pH 7.4, 5.0 × 10^5 CFU/ml): 8 µg/mL
